Values of other authors as cited in patent EP4545067A1, “HIGHY DOSED DERMALLY […] PREPARATION HAVING AN INCREASED DRUGLOAD IN THE TARGET CO[…] IMPROVED TREATMENT OF ECTOPARASITE INFESTATION” (Infectopharm Arzneimittel und Consilium GmbH, priority 2023, dated 2025).

Details: bei 20 °C

Compound: CC1(C)C(C=C(Cl)Cl)C1C(=O)OCc1cccc(Oc2ccccc2)c1 (stereo not shown) [Permethrin, 3-(2,2-Dichlorethenyl)-2,2-dimethylcyclopropancarboxylsäure-(3-phenoxyphenyl)methylester]
- Löslichkeit in Wasser: 0,2 mg·l^-1
